Data published in the kinase profiling compilation of Christmann-Franck et al. (2016).

molecular target: MAPK1 (human) (UniProt P28482); assay: radiometric filter-binding kinase assay, Kinase HotSpot; conditions: compound 0.5 µM; ATP 10 µM

Row | Structure (SMILES) | residual activity [%]
1 | CC(C)n1cnc2c(Nc3cccc(Cl)c3)nc(NCCO)nc21 | 107
2 | CCN1/C(=C/C(C)=O)Sc2ccc(OC)cc21 | 97.1
3 | Nc1nc(Nc2ccc(S(N)(=O)=O)cc2)nn1C(=O)c1c(F)cccc1F | 98.4
4 | O=C1Nc2cc(Br)ccc2/C1=C1/Nc2ccccc2/C1=N\O | 113
5 | Nc1n[nH]c2nnc(-c3c(-c4ccccc4)nn4ccccc34)cc12 | 87.2

molecular target: MKNK2 (human) (UniProt Q9HBH9); assay: as above; conditions: compound 0.5 µM; ATP 10 µM

Row | Structure (SMILES) | residual activity [%]
6 | CC(C)n1cnc2c(Nc3cccc(Cl)c3)nc(NCCO)nc21 | 94.8
7 | CCN1/C(=C/C(C)=O)Sc2ccc(OC)cc21 | 93.8
8 | Nc1nc(Nc2ccc(S(N)(=O)=O)cc2)nn1C(=O)c1c(F)cccc1F | 95.9
9 | O=C1Nc2cc(Br)ccc2/C1=C1/Nc2ccccc2/C1=N\O | 75.3
10 | Nc1n[nH]c2nnc(-c3c(-c4ccccc4)nn4ccccc34)cc12 | 98.3

molecular target: DMPK (human) (UniProt Q09013); assay: as above; conditions: compound 0.5 µM; ATP 10 µM
Sequence (Q09013 whole entry, looked up): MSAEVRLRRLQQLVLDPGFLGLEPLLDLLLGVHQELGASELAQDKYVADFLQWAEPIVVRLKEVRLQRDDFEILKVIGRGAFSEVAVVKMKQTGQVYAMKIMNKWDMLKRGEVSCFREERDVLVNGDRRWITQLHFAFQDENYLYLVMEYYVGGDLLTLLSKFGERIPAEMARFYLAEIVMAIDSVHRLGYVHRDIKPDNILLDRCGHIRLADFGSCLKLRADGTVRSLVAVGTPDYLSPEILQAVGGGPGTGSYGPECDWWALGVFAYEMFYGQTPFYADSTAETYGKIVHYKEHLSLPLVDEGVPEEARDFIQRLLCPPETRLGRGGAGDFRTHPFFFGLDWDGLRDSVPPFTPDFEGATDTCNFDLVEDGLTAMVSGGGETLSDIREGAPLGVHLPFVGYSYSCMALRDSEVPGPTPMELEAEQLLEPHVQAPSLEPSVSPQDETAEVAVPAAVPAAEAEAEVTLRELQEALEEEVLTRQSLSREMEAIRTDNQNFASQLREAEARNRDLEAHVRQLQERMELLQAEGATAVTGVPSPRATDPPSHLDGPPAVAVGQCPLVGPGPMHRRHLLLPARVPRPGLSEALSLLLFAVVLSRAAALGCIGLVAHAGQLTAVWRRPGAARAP

Row | Structure (SMILES) | residual activity [%]
11 | CC(C)n1cnc2c(Nc3cccc(Cl)c3)nc(NCCO)nc21 | 98.5
12 | CCN1/C(=C/C(C)=O)Sc2ccc(OC)cc21 | 101
13 | Nc1nc(Nc2ccc(S(N)(=O)=O)cc2)nn1C(=O)c1c(F)cccc1F | 93.2
14 | O=C1Nc2cc(Br)ccc2/C1=C1/Nc2ccccc2/C1=N\O | 124
15 | Nc1n[nH]c2nnc(-c3c(-c4ccccc4)nn4ccccc34)cc12 | 103

molecular target: PASK (human) (UniProt Q96RG2); assay: as above; conditions: compound 0.5 µM; ATP 10 µM
Sequence (Q96RG2 whole entry, looked up): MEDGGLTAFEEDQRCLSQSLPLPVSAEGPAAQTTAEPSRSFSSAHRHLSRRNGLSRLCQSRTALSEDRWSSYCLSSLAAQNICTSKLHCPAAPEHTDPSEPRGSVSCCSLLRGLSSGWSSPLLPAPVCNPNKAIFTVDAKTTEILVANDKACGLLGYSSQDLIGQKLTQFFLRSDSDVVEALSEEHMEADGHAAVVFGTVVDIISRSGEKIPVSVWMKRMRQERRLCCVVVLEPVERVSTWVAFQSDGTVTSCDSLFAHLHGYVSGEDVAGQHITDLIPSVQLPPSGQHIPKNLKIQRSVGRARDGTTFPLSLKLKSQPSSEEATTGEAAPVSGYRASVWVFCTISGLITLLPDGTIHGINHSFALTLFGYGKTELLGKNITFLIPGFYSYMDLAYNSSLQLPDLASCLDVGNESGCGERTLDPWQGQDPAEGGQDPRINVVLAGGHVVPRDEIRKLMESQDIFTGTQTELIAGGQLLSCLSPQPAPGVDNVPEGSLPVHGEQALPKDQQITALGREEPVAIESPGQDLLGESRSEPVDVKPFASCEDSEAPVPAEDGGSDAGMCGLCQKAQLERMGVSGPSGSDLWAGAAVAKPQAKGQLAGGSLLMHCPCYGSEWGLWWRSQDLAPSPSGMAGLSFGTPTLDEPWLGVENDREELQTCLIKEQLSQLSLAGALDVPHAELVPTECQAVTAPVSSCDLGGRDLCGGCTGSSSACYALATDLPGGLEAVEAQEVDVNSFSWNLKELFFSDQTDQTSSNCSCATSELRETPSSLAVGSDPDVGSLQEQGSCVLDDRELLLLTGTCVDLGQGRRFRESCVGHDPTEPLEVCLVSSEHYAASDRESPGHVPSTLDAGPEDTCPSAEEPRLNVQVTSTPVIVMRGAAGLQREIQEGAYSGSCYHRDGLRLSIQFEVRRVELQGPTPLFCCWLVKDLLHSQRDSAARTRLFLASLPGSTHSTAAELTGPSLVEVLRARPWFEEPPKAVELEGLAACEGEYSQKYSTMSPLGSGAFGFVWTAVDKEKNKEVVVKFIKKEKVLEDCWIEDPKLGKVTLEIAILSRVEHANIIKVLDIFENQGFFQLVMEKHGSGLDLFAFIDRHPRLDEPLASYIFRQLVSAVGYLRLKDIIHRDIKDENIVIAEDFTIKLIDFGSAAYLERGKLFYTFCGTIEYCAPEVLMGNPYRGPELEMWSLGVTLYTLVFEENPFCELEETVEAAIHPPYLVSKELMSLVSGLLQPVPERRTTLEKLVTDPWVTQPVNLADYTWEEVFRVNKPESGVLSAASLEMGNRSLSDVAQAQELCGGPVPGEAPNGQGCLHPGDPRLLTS

Row | Structure (SMILES) | residual activity [%]
16 | CC(C)n1cnc2c(Nc3cccc(Cl)c3)nc(NCCO)nc21 | 92.7
17 | CCN1/C(=C/C(C)=O)Sc2ccc(OC)cc21 | 72.8
18 | Nc1nc(Nc2ccc(S(N)(=O)=O)cc2)nn1C(=O)c1c(F)cccc1F | 91.1
19 | O=C1Nc2cc(Br)ccc2/C1=C1/Nc2ccccc2/C1=N\O | 97.9
20 | Nc1n[nH]c2nnc(-c3c(-c4ccccc4)nn4ccccc34)cc12 | 99.8

molecular target: TBK1 (human) (UniProt Q9UHD2); assay: as above; conditions: compound 0.5 µM; ATP 10 µM

Row | Structure (SMILES) | residual activity [%]
21 | CC(C)n1cnc2c(Nc3cccc(Cl)c3)nc(NCCO)nc21 | 89.2
22 | CCN1/C(=C/C(C)=O)Sc2ccc(OC)cc21 | 94.5
23 | Nc1nc(Nc2ccc(S(N)(=O)=O)cc2)nn1C(=O)c1c(F)cccc1F | 80
24 | O=C1Nc2cc(Br)ccc2/C1=C1/Nc2ccccc2/C1=N\O | 62.1
25 | Nc1n[nH]c2nnc(-c3c(-c4ccccc4)nn4ccccc34)cc12 | 100

molecular target: BLK (human) (UniProt P51451); assay: as above; conditions: compound 0.5 µM; ATP 10 µM

Row | Structure (SMILES) | residual activity [%]
26 | CC(C)n1cnc2c(Nc3cccc(Cl)c3)nc(NCCO)nc21 | 91.2
27 | CCN1/C(=C/C(C)=O)Sc2ccc(OC)cc21 | 95.4
28 | Nc1nc(Nc2ccc(S(N)(=O)=O)cc2)nn1C(=O)c1c(F)cccc1F | 90.1
29 | O=C1Nc2cc(Br)ccc2/C1=C1/Nc2ccccc2/C1=N\O | 11.3
30 | Nc1n[nH]c2nnc(-c3c(-c4ccccc4)nn4ccccc34)cc12 | 98.1

molecular target: PRKCG (human) (UniProt P05129); assay: as above; conditions: compound 0.5 µM; ATP 10 µM

Row | Structure (SMILES) | residual activity [%]
31 | CC(C)n1cnc2c(Nc3cccc(Cl)c3)nc(NCCO)nc21 | 93.6
32 | CCN1/C(=C/C(C)=O)Sc2ccc(OC)cc21 | 75.4
33 | Nc1nc(Nc2ccc(S(N)(=O)=O)cc2)nn1C(=O)c1c(F)cccc1F | 81.3
34 | O=C1Nc2cc(Br)ccc2/C1=C1/Nc2ccccc2/C1=N\O | 90.9
35 | Nc1n[nH]c2nnc(-c3c(-c4ccccc4)nn4ccccc34)cc12 | 103

molecular target: NEK11 (human) (UniProt Q8NG66); assay: as above; conditions: compound 0.5 µM; ATP 10 µM

Row | Structure (SMILES) | residual activity [%]
36 | CC(C)n1cnc2c(Nc3cccc(Cl)c3)nc(NCCO)nc21 | 109
37 | CCN1/C(=C/C(C)=O)Sc2ccc(OC)cc21 | 104
38 | Nc1nc(Nc2ccc(S(N)(=O)=O)cc2)nn1C(=O)c1c(F)cccc1F | 95.8
39 | O=C1Nc2cc(Br)ccc2/C1=C1/Nc2ccccc2/C1=N\O | 118
40 | Nc1n[nH]c2nnc(-c3c(-c4ccccc4)nn4ccccc34)cc12 | 95.1

molecular target: EPHA4 (human) (UniProt P54764); assay: as above; conditions: compound 0.5 µM; ATP 10 µM
Sequence (P54764 whole entry, looked up): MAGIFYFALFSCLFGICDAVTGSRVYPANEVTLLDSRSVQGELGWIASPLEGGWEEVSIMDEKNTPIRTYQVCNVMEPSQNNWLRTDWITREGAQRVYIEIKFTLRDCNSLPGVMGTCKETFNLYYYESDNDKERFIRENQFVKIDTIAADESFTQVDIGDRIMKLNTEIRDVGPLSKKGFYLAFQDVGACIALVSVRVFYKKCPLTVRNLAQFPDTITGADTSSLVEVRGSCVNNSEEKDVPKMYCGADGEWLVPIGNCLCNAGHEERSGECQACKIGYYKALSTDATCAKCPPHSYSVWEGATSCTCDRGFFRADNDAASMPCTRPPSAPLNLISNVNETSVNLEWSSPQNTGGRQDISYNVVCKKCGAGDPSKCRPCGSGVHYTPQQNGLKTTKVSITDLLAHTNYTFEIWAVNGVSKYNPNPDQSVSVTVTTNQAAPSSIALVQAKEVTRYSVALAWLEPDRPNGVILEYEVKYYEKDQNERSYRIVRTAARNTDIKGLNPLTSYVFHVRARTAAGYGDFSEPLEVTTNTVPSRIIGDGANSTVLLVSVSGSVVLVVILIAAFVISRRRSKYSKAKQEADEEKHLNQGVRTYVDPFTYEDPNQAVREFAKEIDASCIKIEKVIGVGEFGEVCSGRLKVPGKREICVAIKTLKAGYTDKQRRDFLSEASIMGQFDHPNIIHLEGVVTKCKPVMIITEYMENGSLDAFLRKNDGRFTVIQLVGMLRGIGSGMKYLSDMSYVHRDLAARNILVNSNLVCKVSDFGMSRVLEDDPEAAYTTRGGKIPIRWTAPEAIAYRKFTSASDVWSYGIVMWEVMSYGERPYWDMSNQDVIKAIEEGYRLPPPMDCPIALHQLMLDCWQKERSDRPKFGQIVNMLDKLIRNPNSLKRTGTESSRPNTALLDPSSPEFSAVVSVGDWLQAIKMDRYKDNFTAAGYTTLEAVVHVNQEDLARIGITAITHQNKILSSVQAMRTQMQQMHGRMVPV

Row | Structure (SMILES) | residual activity [%]
41 | CC(C)n1cnc2c(Nc3cccc(Cl)c3)nc(NCCO)nc21 | 87.5
42 | CCN1/C(=C/C(C)=O)Sc2ccc(OC)cc21 | 95.5
43 | Nc1nc(Nc2ccc(S(N)(=O)=O)cc2)nn1C(=O)c1c(F)cccc1F | 91.3
44 | O=C1Nc2cc(Br)ccc2/C1=C1/Nc2ccccc2/C1=N\O | 90.2
45 | Nc1n[nH]c2nnc(-c3c(-c4ccccc4)nn4ccccc34)cc12 | 85.9

molecular target: CSK (human) (UniProt P41240); assay: as above; conditions: compound 0.5 µM; ATP 10 µM
Sequence (P41240 whole entry, looked up): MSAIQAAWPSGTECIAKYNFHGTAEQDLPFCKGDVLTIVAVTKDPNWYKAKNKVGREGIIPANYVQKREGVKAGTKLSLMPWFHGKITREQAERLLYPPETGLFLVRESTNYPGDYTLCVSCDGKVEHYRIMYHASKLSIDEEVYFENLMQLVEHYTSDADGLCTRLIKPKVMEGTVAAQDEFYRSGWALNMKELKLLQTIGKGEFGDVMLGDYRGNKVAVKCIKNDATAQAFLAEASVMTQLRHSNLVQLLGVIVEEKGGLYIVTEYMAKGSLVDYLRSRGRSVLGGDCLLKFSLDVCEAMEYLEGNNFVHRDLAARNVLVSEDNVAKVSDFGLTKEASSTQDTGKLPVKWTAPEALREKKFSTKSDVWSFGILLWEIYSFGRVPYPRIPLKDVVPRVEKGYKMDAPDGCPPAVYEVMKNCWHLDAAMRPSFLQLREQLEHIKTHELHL

Row | Structure (SMILES) | residual activity [%]
46 | CC(C)n1cnc2c(Nc3cccc(Cl)c3)nc(NCCO)nc21 | 98.2
47 | CCN1/C(=C/C(C)=O)Sc2ccc(OC)cc21 | 104
48 | Nc1nc(Nc2ccc(S(N)(=O)=O)cc2)nn1C(=O)c1c(F)cccc1F | 88.9
49 | O=C1Nc2cc(Br)ccc2/C1=C1/Nc2ccccc2/C1=N\O | 65.8
50 | Nc1n[nH]c2nnc(-c3c(-c4ccccc4)nn4ccccc34)cc12 | 98

molecular target: CSNK2A2 (human) (UniProt P19784); assay: as above; conditions: compound 0.5 µM; ATP 10 µM

Row | Structure (SMILES) | residual activity [%]
51 | CC(C)n1cnc2c(Nc3cccc(Cl)c3)nc(NCCO)nc21 | 91.8
52 | CCN1/C(=C/C(C)=O)Sc2ccc(OC)cc21 | 89.7
53 | Nc1nc(Nc2ccc(S(N)(=O)=O)cc2)nn1C(=O)c1c(F)cccc1F | 97.5
54 | O=C1Nc2cc(Br)ccc2/C1=C1/Nc2ccccc2/C1=N\O | 63.1
55 | Nc1n[nH]c2nnc(-c3c(-c4ccccc4)nn4ccccc34)cc12 | 93.4

molecular target: IRAK4 (human) (UniProt Q9NWZ3); assay: as above; conditions: compound 0.5 µM; ATP 10 µM
Sequence (Q9NWZ3 whole entry, looked up): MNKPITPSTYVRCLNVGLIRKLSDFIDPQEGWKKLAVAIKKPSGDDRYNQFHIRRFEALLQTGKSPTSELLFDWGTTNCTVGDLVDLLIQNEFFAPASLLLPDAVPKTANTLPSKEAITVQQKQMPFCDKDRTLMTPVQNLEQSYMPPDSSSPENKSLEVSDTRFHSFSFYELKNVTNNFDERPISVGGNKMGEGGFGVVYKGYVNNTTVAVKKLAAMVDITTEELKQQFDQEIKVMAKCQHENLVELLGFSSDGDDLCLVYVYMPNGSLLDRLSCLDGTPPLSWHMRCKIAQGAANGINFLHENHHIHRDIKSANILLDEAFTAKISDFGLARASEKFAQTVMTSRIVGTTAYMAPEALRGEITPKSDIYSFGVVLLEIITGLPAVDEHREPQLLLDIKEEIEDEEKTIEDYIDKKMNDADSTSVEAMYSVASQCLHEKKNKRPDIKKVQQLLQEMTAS

Row | Structure (SMILES) | residual activity [%]
56 | CC(C)n1cnc2c(Nc3cccc(Cl)c3)nc(NCCO)nc21 | 95.2
57 | CCN1/C(=C/C(C)=O)Sc2ccc(OC)cc21 | 123
58 | Nc1nc(Nc2ccc(S(N)(=O)=O)cc2)nn1C(=O)c1c(F)cccc1F | 151
59 | O=C1Nc2cc(Br)ccc2/C1=C1/Nc2ccccc2/C1=N\O | 90.1
60 | Nc1n[nH]c2nnc(-c3c(-c4ccccc4)nn4ccccc34)cc12 | 99.7

molecular target: CDK9 CCNT1 (human) (UniProt P50750+O60563); assay: as above; conditions: compound 0.5 µM; ATP 10 µM
Sequence (O60563 whole entry, looked up): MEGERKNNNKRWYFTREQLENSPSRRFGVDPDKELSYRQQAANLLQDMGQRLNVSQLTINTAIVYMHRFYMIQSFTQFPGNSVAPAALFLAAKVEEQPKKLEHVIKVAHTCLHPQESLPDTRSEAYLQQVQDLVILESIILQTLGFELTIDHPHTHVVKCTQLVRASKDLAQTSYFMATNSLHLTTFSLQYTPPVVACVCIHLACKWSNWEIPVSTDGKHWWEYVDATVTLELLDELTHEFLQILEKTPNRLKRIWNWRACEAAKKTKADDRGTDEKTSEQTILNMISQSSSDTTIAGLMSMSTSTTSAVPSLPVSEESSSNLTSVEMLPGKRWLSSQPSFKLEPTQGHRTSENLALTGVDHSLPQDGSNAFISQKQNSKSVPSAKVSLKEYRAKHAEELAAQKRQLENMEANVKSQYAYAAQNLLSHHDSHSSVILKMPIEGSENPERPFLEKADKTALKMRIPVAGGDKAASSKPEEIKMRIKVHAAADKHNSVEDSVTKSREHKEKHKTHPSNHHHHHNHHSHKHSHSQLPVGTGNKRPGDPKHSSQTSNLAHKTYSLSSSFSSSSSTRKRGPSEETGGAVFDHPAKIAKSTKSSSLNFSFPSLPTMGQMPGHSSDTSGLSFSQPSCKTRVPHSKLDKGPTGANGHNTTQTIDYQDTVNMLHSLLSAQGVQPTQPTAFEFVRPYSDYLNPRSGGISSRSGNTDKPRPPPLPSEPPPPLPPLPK
Sequence (P50750 whole entry, looked up): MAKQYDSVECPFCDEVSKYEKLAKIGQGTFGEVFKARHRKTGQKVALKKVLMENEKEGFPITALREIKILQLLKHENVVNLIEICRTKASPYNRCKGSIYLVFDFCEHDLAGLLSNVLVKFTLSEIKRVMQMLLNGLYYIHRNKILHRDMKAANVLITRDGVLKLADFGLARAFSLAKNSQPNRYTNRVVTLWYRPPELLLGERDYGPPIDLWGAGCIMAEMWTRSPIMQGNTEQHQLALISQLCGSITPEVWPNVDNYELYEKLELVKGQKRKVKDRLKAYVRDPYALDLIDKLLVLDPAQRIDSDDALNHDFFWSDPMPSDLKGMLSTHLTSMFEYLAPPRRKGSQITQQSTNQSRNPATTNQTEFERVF

Row | Structure (SMILES) | residual activity [%]
61 | CC(C)n1cnc2c(Nc3cccc(Cl)c3)nc(NCCO)nc21 | 87.4
62 | CCN1/C(=C/C(C)=O)Sc2ccc(OC)cc21 | 101
63 | Nc1nc(Nc2ccc(S(N)(=O)=O)cc2)nn1C(=O)c1c(F)cccc1F | 27.6
64 | O=C1Nc2cc(Br)ccc2/C1=C1/Nc2ccccc2/C1=N\O | 68.2
65 | Nc1n[nH]c2nnc(-c3c(-c4ccccc4)nn4ccccc34)cc12 | 97.3

molecular target: AURKC (human) (UniProt Q9UQB9); assay: as above; conditions: compound 0.5 µM; ATP 10 µM

Row | Structure (SMILES) | residual activity [%]
66 | CC(C)n1cnc2c(Nc3cccc(Cl)c3)nc(NCCO)nc21 | 92.1
67 | CCN1/C(=C/C(C)=O)Sc2ccc(OC)cc21 | 94.8
68 | Nc1nc(Nc2ccc(S(N)(=O)=O)cc2)nn1C(=O)c1c(F)cccc1F | 28.3
69 | O=C1Nc2cc(Br)ccc2/C1=C1/Nc2ccccc2/C1=N\O | 51.8
70 | Nc1n[nH]c2nnc(-c3c(-c4ccccc4)nn4ccccc34)cc12 | 96.4

molecular target: OXSR1 (human) (UniProt O95747); assay: as above; conditions: compound 0.5 µM; ATP 10 µM

Row | Structure (SMILES) | residual activity [%]
71 | CC(C)n1cnc2c(Nc3cccc(Cl)c3)nc(NCCO)nc21 | 97.7
72 | CCN1/C(=C/C(C)=O)Sc2ccc(OC)cc21 | 93.5
73 | Nc1nc(Nc2ccc(S(N)(=O)=O)cc2)nn1C(=O)c1c(F)cccc1F | 88.8
74 | O=C1Nc2cc(Br)ccc2/C1=C1/Nc2ccccc2/C1=N\O | 100
75 | Nc1n[nH]c2nnc(-c3c(-c4ccccc4)nn4ccccc34)cc12 | 102

molecular target: PDGFRB (human) (UniProt P09619); assay: as above; conditions: compound 0.5 µM; ATP 10 µM

Row | Structure (SMILES) | residual activity [%]
76 | CC(C)n1cnc2c(Nc3cccc(Cl)c3)nc(NCCO)nc21 | 94.7
77 | CCN1/C(=C/C(C)=O)Sc2ccc(OC)cc21 | 107
78 | Nc1nc(Nc2ccc(S(N)(=O)=O)cc2)nn1C(=O)c1c(F)cccc1F | 89.1
79 | O=C1Nc2cc(Br)ccc2/C1=C1/Nc2ccccc2/C1=N\O | 35.2
80 | Nc1n[nH]c2nnc(-c3c(-c4ccccc4)nn4ccccc34)cc12 | 114

molecular target: PRKD3 (human) (UniProt O94806); assay: as above; conditions: compound 0.5 µM; ATP 10 µM

Row | Structure (SMILES) | residual activity [%]
81 | CC(C)n1cnc2c(Nc3cccc(Cl)c3)nc(NCCO)nc21 | 88.4
82 | CCN1/C(=C/C(C)=O)Sc2ccc(OC)cc21 | 62.5
83 | Nc1nc(Nc2ccc(S(N)(=O)=O)cc2)nn1C(=O)c1c(F)cccc1F | 55.6
84 | O=C1Nc2cc(Br)ccc2/C1=C1/Nc2ccccc2/C1=N\O | 87.8
85 | Nc1n[nH]c2nnc(-c3c(-c4ccccc4)nn4ccccc34)cc12 | 58.9

molecular target: PRKD2 (human) (UniProt Q9BZL6); assay: as above; conditions: compound 0.5 µM; ATP 10 µM

Row | Structure (SMILES) | residual activity [%]
86 | CC(C)n1cnc2c(Nc3cccc(Cl)c3)nc(NCCO)nc21 | 88.1
87 | CCN1/C(=C/C(C)=O)Sc2ccc(OC)cc21 | 69.4
88 | Nc1nc(Nc2ccc(S(N)(=O)=O)cc2)nn1C(=O)c1c(F)cccc1F | 86
89 | O=C1Nc2cc(Br)ccc2/C1=C1/Nc2ccccc2/C1=N\O | 94.1
90 | Nc1n[nH]c2nnc(-c3c(-c4ccccc4)nn4ccccc34)cc12 | 54.1
